Values quoted from earlier work, collected in patent US20230172854A1 (UNIWERSYTET HUMANISTYCZNO-PRZYRODNICZY IM JANA DLUGOSZA W …, priority 2020, published 2023).

Conditions: estimated

- bioavailability: 25%
SMILES: CCCCC(=O)N(Cc1ccc(-c2ccccc2-c2nnn[nH]2)cc1)[C@H](C(=O)O)C(C)C [valsartan]
